What was measured:
Test in all cases: relative viability (nuclei count vs DMSO), 5 days (fraction); higher = more cells survive
Ispinesib + Navitoclax = compound: Cc1ccc(C(=O)N(CCCN)[C@@H](c2nc3cc(Cl)ccc3c(=O)n2Cc2ccccc2)C(C)C)cc1 [Ispinesib] + CC1(C)CCC(c2ccc(Cl)cc2)=C(CN2CCN(c3ccc(C(=O)NS(=O)(=O)c4ccc(N[C@H](CCN5CCOCC5)CSc5ccccc5)c(S(=O)(=O)C(F)(F)F)c4)cc3)CC2)C1 [Navitoclax] (partner 0.5 µM)
Outline: (§1)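 Relative viability is defined as nuclei in treated wells over nuclei in vehicle wells. Duplicate plates were run and medians reported. Lung cancer cell lines in 1536-well plates were dosed by pin tool one day after seeding, with one drug or with a fixed anchor-drug dose plus five library-drug doses (not always all listed) in √10 steps, and nuclei were counted after 5 days.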

Ispinesib + Linsitinib = compound: Cc1ccc(C(=O)N(CCCN)[C@@H](c2nc3cc(Cl)ccc3c(=O)n2Cc2ccccc2)C(C)C)cc1 [Ispinesib] + C[C@]1(O)C[C@@H](c2nc(-c3ccc4ccc(-c5ccccc5)nc4c3)c3c(N)nccn32)C1 [Linsitinib] (partner 1 µM)
Outline: as §1

Linsitinib + Bortezomib = compound: C[C@]1(O)C[C@@H](c2nc(-c3ccc4ccc(-c5ccccc5)nc4c3)c3c(N)nccn32)C1 [Linsitinib] + CC(C)C[C@H](NC(=O)[C@H](Cc1ccccc1)NC(=O)c1cnccn1)B(O)O [Bortezomib] (partner 0.002 µM)
Outline: as §1

Ispinesib + Bortezomib = compound: Cc1ccc(C(=O)N(CCCN)[C@@H](c2nc3cc(Cl)ccc3c(=O)n2Cc2ccccc2)C(C)C)cc1 [Ispinesib] + CC(C)C[C@H](NC(=O)[C@H](Cc1ccccc1)NC(=O)c1cnccn1)B(O)O [Bortezomib] (partner 0.002 µM)
Outline: as §1

Cell Line | relative viability (Ispinesib + Navitoclax; first compound 0.001 µM) | relative viability (Ispinesib + Navitoclax; first compound 0.003162 µM) | relative viability (Ispinesib + Navitoclax; first compound 0.01 µM) | relative viability (Ispinesib + Navitoclax; first compound 0.03162 µM) | relative viability (Ispinesib + Navitoclax; first compound 0.1 µM) | relative viability (Ispinesib + Linsitinib; first compound 0.001 µM) | relative viability (Ispinesib + Linsitinib; first compound 0.003162 µM) | relative viability (Ispinesib + Linsitinib; first compound 0.01 µM) | relative viability (Ispinesib + Linsitinib; first compound 0.03162 µM) | relative viability (Ispinesib + Linsitinib; first compound 0.1 µM) | relative viability (Linsitinib + Bortezomib; first compound 0.01 µM) | relative viability (Linsitinib + Bortezomib; first compound 0.03162 µM) | relative viability (Linsitinib + Bortezomib; first compound 0.1 µM) | relative viability (Linsitinib + Bortezomib; first compound 0.3162 µM) | relative viability (Linsitinib + Bortezomib; first compound 1 µM) | relative viability (Ispinesib + Bortezomib; first compound 0.001 µM) | relative viability (Ispinesib + Bortezomib; first compound 0.003162 µM) | relative viability (Ispinesib + Bortezomib; first compound 0.01 µM) | relative viability (Ispinesib + Bortezomib; first compound 0.03162 µM) | relative viability (Ispinesib + Bortezomib; first compound 0.1 µM)
HCC-15 | 0.792 | 0.82 | 0.848 | 0.665 | 0.401 | 0.998 | 1.06 | 1.06 | 0.663 | 0.415 | 1.04 | 0.938 | 1.1 | 0.297 | 0.785 | 1.14 | 1.19 | 1.24 | 0.563 | 0.226
NCI-H2087 | 0.976 | 1.07 | 1.23 | 0.933 | 0.156 | 1.02 | 0.979 | 1.02 | 0.459 | 0.167 | 0.947 | 0.97 | 0.945 | 0.594 | 0.641 | 0.852 | 0.978 | 1.05 | 0.477 | 0.153
EBC-1 | 0.349 | 0.43 | 0.246 | 0.189 | 0.223 | 0.926 | 1.04 | 1.04 | 0.8 | 0.187 | 0.59 | 0.536 | 0.579 | 0.519 | 0.442 | 0.663 | 0.626 | 0.476 | 0.207 | 0.263
HCC-78 | 0.706 | 0.851 | 0.85 | – | 0.657 | 0.51 | 0.498 | 0.509 | – | 0.151 | 0.511 | 0.645 | 0.507 | 0.525 | 0.395 | 0.504 | 0.531 | 0.459 | 0.308 | 0.394
NCI-H1666 | 0.987 | 0.876 | 0.945 | 0.527 | 0.25 | 1.05 | 0.907 | 0.833 | 0.767 | 0.408 | 0.675 | 0.798 | 0.774 | 0.348 | 0.308 | 0.704 | 0.761 | 0.64 | 0.305 | 0.321
IA-LM | 0.969 | 0.751 | 0.44 | 0.0088 | 0.0187 | 0.493 | 0.567 | 0.996 | 0.549 | 0.158 | 0.748 | 0.824 | 0.789 | 0.648 | 0.678 | 1.09 | 0.814 | 0.866 | 0.0909 | 0.111
EKVX | 1.07 | 0.964 | 1.06 | 0.75 | 0.22 | 1.15 | 1.05 | 1.17 | 0.927 | 0.454 | 1.12 | 1.02 | 1.07 | 0.9 | 0.852 | 1.09 | 1.24 | 1.15 | 0.939 | 0.186
COR-L 105 | 0.722 | 0.824 | 0.676 | 0.464 | 0.345 | 0.985 | 0.993 | 0.814 | 0.492 | 0.26 | 0.821 | 0.619 | 0.785 | 0.389 | 0.501 | 0.836 | 0.664 | 0.325 | 0.311 | 0.303
NCI-H322M | 1.2 | 1.13 | 1.15 | 1.14 | 1.15 | 0.966 | 0.945 | 1.01 | 0.569 | 0.921 | 1.24 | 1.12 | 1.44 | 0.922 | 1.19 | 1.38 | 1.33 | 1.41 | 0.722 | 0.757
HARA | 1.28 | 1.17 | 1.36 | 1.17 | 0.12 | 0.993 | 0.85 | 1.32 | 1.07 | 0.207 | 1.11 | 1.08 | 1.21 | 0.666 | 1.15 | 1.37 | 1.21 | 1.42 | 0.931 | 0.211
NCI-H1703 | 1.2 | 0.727 | 0.117 | 0.0871 | 0.114 | 0.742 | 0.64 | 0.504 | 0.106 | 0.0823 | 0.416 | – | 0.317 | 0.288 | 0.314 | 0.28 | 0.298 | 0.0844 | 0.0907 | 0.106
NCI-H2023 | 1.07 | 1.09 | 1.1 | 0.837 | 0.21 | 0.79 | 0.74 | 0.627 | 0.439 | 0.149 | 0.876 | 0.724 | 1 | 0.239 | 0.602 | 1 | 1.02 | 0.713 | 0.144 | 0.147
NCI-H1437 | 1.28 | 1.1 | 1.43 | 1.06 | 0.295 | 1.12 | 1.28 | 1.54 | 0.995 | 0.303 | 0.561 | 0.507 | 0.545 | 0.302 | 0.38 | 0.451 | 0.608 | 0.592 | 0.487 | 0.134
BEN | 0.0635 | 0.0753 | 0.0591 | 0.0599 | 0.053 | 1 | 1.12 | 1.06 | 0.682 | 0.32 | 0.884 | 0.78 | 0.658 | 0.612 | 0.626 | 0.927 | 1.01 | 0.851 | 0.431 | 0.201
LXF-289 | 0.934 | 0.995 | 1.12 | 0.922 | 0.469 | 0.914 | 0.987 | 1.09 | 0.936 | 0.542 | 0.95 | 0.96 | 0.994 | 0.743 | 0.977 | 0.993 | 0.992 | 1.14 | 0.799 | 0.118
NCI-H1993 | 0.869 | 0.944 | 0.87 | 0.84 | 0.526 | 0.631 | 0.724 | 0.749 | 0.716 | 0.675 | 1.26 | 1.29 | 1.32 | 0.797 | 0.695 | 1.23 | 1.14 | 1.1 | 1.03 | 0.585
